The source of these data is patent EP3272768A1, “CHIMERIC PEPTIDES USEFUL IN MALARIA PROPHYLAXIS OR TREATMENT” (priority 2016, dated 2018).

Peptide text beside a SMILES is read from it.

The series concerns primary human hepatocytes. The class given is cell-based. Here is the method: A) Overlapping dodecapeptides with two amino acid shift covering the whole […] PfLRR1 protein were bound to a solid support. The membrane was incubated sequentially with PP1 protein, and anti- PP1 antibody, followed by a peroxidase-labeled secondary antibody. […] PfLRR1.1 and PfLRR1.2 are shown. B) PP1 sequence alignment between human and P. falciparum species (SEQ ID NO:16 and 15). • Figures 2A and 2B show in vitro cell viability assay. Primary hepatocytes were treated with or without various concentrations of […] or […] peptides. Absorbance was recorded 72h after. […] The assay was done using parasitemia of 0.5% and hematocrit of 1%. The peptides were added at various concentrations and incubated for 48h and then, fixed. Samples were analyzed by flow cytometry. Results are expressed as percentage of growth inhibition. • Figures 4A and 4B show in vitro effect of chimeric peptides PfLRR1.1 (peptide 1) and PfLRR1.2 (peptide 2) on the hepatic stage of the P. falciparum. […] The culture was fixed with paraformaldehyde (PFA) and analysed by fluorescence microscopy. • Figures 5A and 5B show in vitro effect of peptides PfLRR1.1 and PfLRR1.2 on the hepatic stage of the P. vivax. […] The culture was fixed with PFA and analysed by fluorescence microscopy.
The cell viability was determined using a colorimetric assay based on 3-(4,5-dimethylthiazol- 2-yl)-2,5 diphenyltetrazolium bromide (MTT). […]

On to `CC[C@H](C)[C@H](NC(=O)[C@H](CCCCN)NC(=O)[C@H](CCCCN)NC(=O)[C@H](CCCCN)NC(=O)[C@H](CCCCN)NC(=O)[C@@H](N)C(C)C)C(=O)N[C@@H](CCCCN)C(=O)N[C@@H](C)C(=O)N[C@@H](CCC(=O)O)C(=O)N[C@H](C(=O)N[C@@H](CCCCN)C(=O)N[C@H](C(=O)N[C@@H](CCC(=O)O)C(=O)N[C@@H](CC(N)=O)C(=O)N[C@@H](Cc1ccc(O)cc1)C(=O)N[C@@H](CCCNC(=N)N)C(=O)N[C@@H](CCCCN)C(=O)N[C@H](C(=O)N[C@H](C(=O)N[C@H](C(=O)N[C@@H](Cc1c[nH]cn1)C(=O)N[C@H](C(=O)N[C@@H](CC(C)C)C(=O)N1CCC[C@H]1C(=O)N[C@@H](CCC(N)=O)C(=O)N[C@@H](CC(C)C)C(=O)N[C@@H](CCCCN)C(=O)N[C@@H](CCC(N)=O)C(=O)N[C@@H](CC(C)C)C(=O)N[C@@H](CC(=O)O)C(=O)N[C@@H](C)C(=O)N[C@@H](CC(C)C)C(=O)O)[C@@H](C)CC)[C@@H](C)CC)[C@@H](C)CC)[C@@H](C)O)[C@@H](C)CC)[C@@H](C)CC` [PfLRR1.1] (H-VKKKKIKAEIKIENYRKTIIHILPQLKQLDAL-OH), for which the “toxicity for the host cell (primary human hepatocyte)” value is “not toxic”. In the case of `CC[C@H](C)[C@H](NC(=O)[C@H](CCCCN)NC(=O)[C@H](CCCCN)NC(=O)[C@H](CCCCN)NC(=O)[C@H](CCCCN)NC(=O)[C@@H](N)C(C)C)C(=O)N[C@@H](CCCCN)C(=O)N[C@@H](C)C(=O)N[C@@H](CCC(=O)O)C(=O)N[C@H](C(=O)N[C@@H](CCCCN)C(=O)N[C@H](C(=O)N[C@H](C(=O)N[C@@H](CCC(=O)O)C(=O)N[C@@H](CC(N)=O)C(=O)N[C@@H](CC(C)C)C(=O)N[C@@H](CCC(N)=O)C(=O)N[C@@H](CC(N)=O)C(=O)N[C@@H](CS)C(=O)N[C@@H](CCCCN)C(=O)N[C@@H](CCCCN)C(=O)N[C@@H](CC(C)C)C(=O)N[C@@H](CCCNC(=N)N)C(=O)N[C@@H](CC(C)C)C(=O)N[C@@H](CC(C)C)C(=O)N[C@@H](CCC(=O)O)C(=O)N[C@@H](CC(C)C)C(=O)NCC(=O)N[C@@H](Cc1ccc(O)cc1)C(=O)N[C@@H](CC(N)=O)C(=O)N[C@@H](CCCCN)C(=O)N[C@H](C(=O)N[C@@H](CCCNC(=N)N)C(=O)N[C@@H](CCSC)C(=O)O)[C@@H](C)CC)[C@@H](C)CC)[C@@H](C)CC)[C@@H](C)CC` [PfLRR1.2] (H-VKKKKIKAEIKIIENLQNCKKLRLLELGYNKIRM-OH) it was “not toxic”.
